The text below walks through data of ChEMBL document CHEMBL4219117, “Chemical synthesis of an indomethacin ester prodrug and its metabolic activation by human carboxylesterase 1” (Bioorg Med Chem Lett, 2018).

Series [1] deals with T1, Liver carboxylesterase 1 (Homo sapiens, UniProt P23141).
T1 sequence (P23141 whole entry): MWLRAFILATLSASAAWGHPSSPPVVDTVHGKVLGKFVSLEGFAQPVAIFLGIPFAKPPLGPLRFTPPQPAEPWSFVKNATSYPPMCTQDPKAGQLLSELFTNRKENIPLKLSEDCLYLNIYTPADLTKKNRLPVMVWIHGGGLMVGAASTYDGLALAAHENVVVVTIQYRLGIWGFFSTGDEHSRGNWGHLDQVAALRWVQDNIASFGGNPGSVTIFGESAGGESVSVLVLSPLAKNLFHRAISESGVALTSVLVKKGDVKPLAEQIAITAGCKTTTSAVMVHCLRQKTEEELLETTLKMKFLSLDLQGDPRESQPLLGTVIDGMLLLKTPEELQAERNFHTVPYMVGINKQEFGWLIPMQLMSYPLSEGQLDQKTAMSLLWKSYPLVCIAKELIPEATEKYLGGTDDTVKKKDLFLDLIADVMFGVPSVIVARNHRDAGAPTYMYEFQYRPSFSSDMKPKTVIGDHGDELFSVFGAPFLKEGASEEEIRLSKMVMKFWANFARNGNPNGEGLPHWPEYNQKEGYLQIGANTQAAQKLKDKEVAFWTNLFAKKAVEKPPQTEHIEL
The series is described as follows: Prodrug activation assessed as human carboxylesterase 1b-mediated indomethacin formation by measuring intrinsic clearance per mg protein at 0.003125 to 0.10 mM after 30 to 180 mins by HPLC based Michaelis-Menten plot analysis. The settings on record: isolated protein, 100 µM.

Series [2] has as its target T1, Liver carboxylesterase 1. In words: Prodrug activation in human intestine microsomes assessed as carboxylesterase 1-mediated indomethacin formation at 0.25 mM after 30 to 1440 mins by HPLC analysis. The following applies: 250 µM.
Series [3] addresses T1, Liver carboxylesterase 1. In words: Prodrug activation in human liver microsomes assessed as carboxylesterase 1-mediated indomethacin formation at 0.25 mM after 30 to 1440 mins by HPLC analysis. The following applies: 250 µM.
Substrate in series [4]: CCCCSC(=O)Cc1c(C)n(C(=O)c2ccc(Cl)cc2)c2ccc(OC)cc12
The series is described as follows: (§1) Prodrug activation assessed as human carboxylesterase 1b-mediated indomethacin formation at 0.003125 to 0.10 mM after 30 to 180 mins by HPLC based Michaelis-Menten plot analysis.

Substrate in series [5]: CC[C@H](C)OC(=O)Cc1c(C)n(C(=O)c2ccc(Cl)cc2)c2ccc(OC)cc12
The description is as §1.

Substrate in series [6]: COc1ccc2c(c1)c(CC(=O)OCC(C)(C)C)c(C)n2C(=O)c1ccc(Cl)cc1
The series is described as §1.

Substrate in series [7]: CC[C@H](OC(=O)Cc1c(C)n(C(=O)c2ccc(Cl)cc2)c2ccc(OC)cc12)c1ccccc1
The description is as §1.

Substrate in series [8]: CCCCOC(=O)Cc1c(C)n(C(=O)c2ccc(Cl)cc2)c2ccc(OC)cc12
The description is as §1.

Substrate in series [9]: COc1ccc2c(c1)c(CC(=O)OCC(C)C)c(C)n2C(=O)c1ccc(Cl)cc1
Described as §1.

Substrate in series [10]: CC[C@@H](C)OC(=O)Cc1c(C)n(C(=O)c2ccc(Cl)cc2)c2ccc(OC)cc12
The description is as §1.

Substrate in series [11]: CC[C@@H](OC(=O)Cc1c(C)n(C(=O)c2ccc(Cl)cc2)c2ccc(OC)cc12)c1ccccc1
The description is as §1.

For `CCCCOC(=O)Cc1c(C)n(C(=O)c2ccc(Cl)cc2)c2ccc(OC)cc12`, the clearance in [1] came out at 340 µL/min/mg. Also, the Drug metabolism entry in series [2] and in series [3] was “Metabolite_Detected” each time.

Consider `CCCCSC(=O)Cc1c(C)n(C(=O)c2ccc(Cl)cc2)c2ccc(OC)cc12`, for which the clearance in series [1] came to 380 µL/min/mg. Also, the Drug metabolism entry in series [2] and in [3] was “Metabolite_Detected” each time.

For the molecule `CC[C@@H](C)OC(=O)Cc1c(C)n(C(=O)c2ccc(Cl)cc2)c2ccc(OC)cc12`, the clearance in series [1] worked out at 4.8 µL/min/mg. Besides, the Drug metabolism entry in series [2] and in [3] was “Metabolite_Notdetected” each time.

In the case of `COc1ccc2c(c1)c(CC(=O)OC(C)(C)C)c(C)n2C(=O)c1ccc(Cl)cc1`, the Drug metabolism entry in [2] and in series [3] was “Metabolite_Notdetected” in each case.

In the case of `COc1ccc2c(c1)c(CC(=O)OCC(C)(C)C)c(C)n2C(=O)c1ccc(Cl)cc1`, in [1], the clearance was found to be 69 µL/min/mg. For the same molecule, the Drug metabolism result in series [2] was “Metabolite_Notdetected”; in [3] it was “Metabolite_Detected”.

For the molecule `CC[C@H](C)OC(=O)Cc1c(C)n(C(=O)c2ccc(Cl)cc2)c2ccc(OC)cc12`, the clearance in [1] was 2.1 µL/min/mg. In addition, the Drug metabolism result in series [2] and in series [3] was “Metabolite_Notdetected” in each case.

For the molecule `CC[C@H](OC(=O)Cc1c(C)n(C(=O)c2ccc(Cl)cc2)c2ccc(OC)cc12)c1ccccc1`, the clearance in series [1] worked out at 0.3 µL/min/mg. For the same molecule, the Drug metabolism result in series [2] and in [3] was “Metabolite_Notdetected” each time.

For `COc1ccc2c(c1)c(CC(=O)OCC(C)C)c(C)n2C(=O)c1ccc(Cl)cc1`, the clearance in [1] came to 89 µL/min/mg. In addition, the Drug metabolism result in [2] and in series [3] was “Metabolite_Detected” throughout.

Regarding `CC[C@@H](OC(=O)Cc1c(C)n(C(=O)c2ccc(Cl)cc2)c2ccc(OC)cc12)c1ccccc1`, the clearance in series [1] was found to be 7 µL/min/mg. The Drug metabolism result in [2] and in series [3] was “Metabolite_Notdetected” throughout.

B1: Liver carboxylesterase 1 (Homo sapiens) (protein)
chain: MWLRAFILATLSASAAWGHPSSPPVVDTVHGKVLGKFVSLEGFAQPVAIFLGIPFAKPPLGPLRFTPPQPAEPWSFVKNATSYPPMCTQDPKAGQLLSELFTNRKENIPLKLSEDCLYLNIYTPADLTKKNRLPVMVWIHGGGLMVGAASTYDGLALAAHENVVVVTIQYRLGIWGFFSTGDEHSRGNWGHLDQVAALRWVQDNIASFGGNPGSVTIFGESAGGESVSVLVLSPLAKNLFHRAISESGVALTSVLVKKGDVKPLAEQIAITAGCKTTTSAVMVHCLRQKTEEELLETTLKMKFLSLDLQGDPRESQPLLGTVIDGMLLLKTPEELQAERNFHTVPYMVGINKQEFGWLIPMQLMSYPLSEGQLDQKTAMSLLWKSYPLVCIAKELIPEATEKYLGGTDDTVKKKDLFLDLIADVMFGVPSVIVARNHRDAGAPTYMYEFQYRPSFSSDMKPKTVIGDHGDELFSVFGAPFLKEGASEEEIRLSKMVMKFWANFARNGNPNGEGLPHWPEYNQKEGYLQIGANTQAAQKLKDKEVAFWTNLFAKKAVEKPPQTEHIEL
Turning to B1, the Km – broadly, the substrate concentration at which the rate is half of its maximum – in series [4] was determined as 2.1 µM; in series [5], 48.5 µM; in series [6], 4.6 µM; in [7] it was 6.5 µM; in [8] it was 4.4 µM; in [9] it was 13.7 µM. Further, the Km was 10.1 µM in [10] and 2.9 µM in [11]. For the same molecule, the Vmax (usually the rate approached at saturating substrate) in series [4] came out at 0.0008 µmol/min; in series [5], 0.000103 µmol/min; in series [6], 0.000322 µmol/min; in series [7] it was 2e-06 µmol/min; in [8] it was 0.00151 µmol/min; in [9] it was 0.00122 µmol/min. Also, the maximum rate (Vmax) in series [10] stood at 4.9e-05 µmol/min; in [11], 2.1e-05 µmol/min.
